Data taken from patent US20230103791A1 (GLAXOSMITHKLINE INTELLECTUAL PROPERTY DEVELOPMENT LIMITED, priority 2019, published 2023).

Target: T1, human Nav1.8 (Homo sapiens, UniProt Q9Y5Y9)
T1 construct: expressed in transfected cells; host or cells: HEK293 (HEK293-Nav1.8)
Assay: Nav1.8 sodium channels assay, QPatch 48 HTX electrophysiology in HEK293-Nav1.8 cells
Format: cell-based
Details: at least one set of experimental runs; read-out: average pIC50 value against Nav1.8 (converted)
In short: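 HEK293 cells co-expressing human Nav1.8, Navβ1 and TREK1 were voltage-clamped on QPatch 48 HTX. The V1/2 protocol ran at 0.07 Hz: hold −100 mV, 20 ms to 0 mV, 8 s at −46 mV, 20 ms at −100 mV, then 20 ms at 0 mV (P2). P2 current was fitted over 6-8 concentrations for IC50, with vehicle wells used to correct for run-down.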

T1 sequence (Q9Y5Y9 whole entry): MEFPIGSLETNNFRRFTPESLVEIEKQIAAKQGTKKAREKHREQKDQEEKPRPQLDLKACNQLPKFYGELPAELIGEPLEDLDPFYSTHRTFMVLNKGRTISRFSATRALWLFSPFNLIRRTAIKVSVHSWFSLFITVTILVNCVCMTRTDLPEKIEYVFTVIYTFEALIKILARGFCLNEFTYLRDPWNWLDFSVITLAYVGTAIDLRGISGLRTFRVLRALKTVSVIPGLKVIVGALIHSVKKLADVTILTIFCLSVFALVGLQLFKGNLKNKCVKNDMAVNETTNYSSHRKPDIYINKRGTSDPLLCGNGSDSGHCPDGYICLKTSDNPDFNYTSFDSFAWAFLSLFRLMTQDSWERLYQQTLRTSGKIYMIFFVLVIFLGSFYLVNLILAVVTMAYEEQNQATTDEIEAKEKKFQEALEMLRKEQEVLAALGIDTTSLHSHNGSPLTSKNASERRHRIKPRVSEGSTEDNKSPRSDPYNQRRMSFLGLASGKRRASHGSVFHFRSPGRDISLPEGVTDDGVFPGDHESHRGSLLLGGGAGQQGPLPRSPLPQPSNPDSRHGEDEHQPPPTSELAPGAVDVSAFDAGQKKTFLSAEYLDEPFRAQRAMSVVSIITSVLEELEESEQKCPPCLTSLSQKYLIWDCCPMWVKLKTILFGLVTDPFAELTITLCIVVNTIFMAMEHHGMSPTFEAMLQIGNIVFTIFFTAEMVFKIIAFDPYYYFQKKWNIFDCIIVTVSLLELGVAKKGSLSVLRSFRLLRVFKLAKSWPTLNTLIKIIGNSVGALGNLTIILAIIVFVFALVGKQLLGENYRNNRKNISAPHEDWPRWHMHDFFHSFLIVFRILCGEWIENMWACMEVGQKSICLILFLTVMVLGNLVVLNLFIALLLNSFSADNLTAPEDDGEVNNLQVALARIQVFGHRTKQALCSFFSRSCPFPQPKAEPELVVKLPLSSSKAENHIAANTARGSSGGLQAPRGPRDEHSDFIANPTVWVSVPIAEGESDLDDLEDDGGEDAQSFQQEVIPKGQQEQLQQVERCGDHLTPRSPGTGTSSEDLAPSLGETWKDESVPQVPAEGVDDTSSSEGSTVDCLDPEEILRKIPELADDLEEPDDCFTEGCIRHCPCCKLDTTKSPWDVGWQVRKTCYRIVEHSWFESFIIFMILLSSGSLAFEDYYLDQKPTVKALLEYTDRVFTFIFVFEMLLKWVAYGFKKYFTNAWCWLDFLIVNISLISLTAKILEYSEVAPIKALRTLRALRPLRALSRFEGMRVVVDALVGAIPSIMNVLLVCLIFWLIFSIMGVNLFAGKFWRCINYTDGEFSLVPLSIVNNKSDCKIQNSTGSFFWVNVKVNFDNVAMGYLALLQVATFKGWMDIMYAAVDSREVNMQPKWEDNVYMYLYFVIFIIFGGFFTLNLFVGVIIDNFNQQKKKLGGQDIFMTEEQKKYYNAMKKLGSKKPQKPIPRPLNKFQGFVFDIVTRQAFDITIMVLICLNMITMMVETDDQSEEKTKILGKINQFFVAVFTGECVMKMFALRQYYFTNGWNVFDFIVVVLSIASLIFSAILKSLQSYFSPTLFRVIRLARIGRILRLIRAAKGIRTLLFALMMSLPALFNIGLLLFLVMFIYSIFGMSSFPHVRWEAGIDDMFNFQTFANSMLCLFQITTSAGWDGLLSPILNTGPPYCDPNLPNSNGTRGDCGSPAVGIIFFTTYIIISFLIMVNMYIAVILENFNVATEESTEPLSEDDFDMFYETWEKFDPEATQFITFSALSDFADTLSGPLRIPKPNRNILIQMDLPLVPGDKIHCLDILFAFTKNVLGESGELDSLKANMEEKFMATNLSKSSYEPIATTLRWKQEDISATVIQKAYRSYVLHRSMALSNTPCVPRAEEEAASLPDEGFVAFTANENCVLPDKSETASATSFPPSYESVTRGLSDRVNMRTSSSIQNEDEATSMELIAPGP
T1 sequence (Q07699 19-218 partner): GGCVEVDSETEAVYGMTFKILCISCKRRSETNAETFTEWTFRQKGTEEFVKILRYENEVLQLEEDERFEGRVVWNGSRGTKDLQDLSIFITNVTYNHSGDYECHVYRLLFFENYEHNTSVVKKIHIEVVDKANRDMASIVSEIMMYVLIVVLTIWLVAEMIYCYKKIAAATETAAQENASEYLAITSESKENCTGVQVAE

SMILES	IC50 [nM]
Cc1cc(=O)[nH]c(C)c1N1CN(c2ccc(F)cc2C(C)C)c2ccc(Cl)cc2C1=O [Example 82, 6-chloro-3-(2,4-dimethyl-6-oxo-1,6-dihydropyridin-3-yl)-1-(4-fluoro-2-isopropylphenyl)-2,3-dihydroquinazolin-4(1H)-one]	126 to 631
Cc1cc(Cl)ncc1N1CN(c2ccc(F)cc2C)c2ccc(C(F)(F)F)cc2C1=O [Example 22, 3-(6-chloro-4-methylpyridin-3-yl)-1-(4-fluoro-2-methylphenyl)-6-(trifluoromethyl)-2,3-dihydroquinazolin-4(1H)-one]	794 to 7940
Cc1cc(F)ccc1N1CN(c2ccc(=O)[nH]c2N)C(=O)c2cc(C(F)(F)F)ccc21 [Example 257, 3-(2-Amino-6-oxo-1,6-dihydropyridin-3-yl)-1-(4-fluoro-2-methylphenyl)-6-(trifluoromethyl)-2,3-dihydroquinazolin-4(1H)-one]	≤ 100
CCc1cc(F)ccc1N1CN(c2ccc(=O)[nH]c2C)C(=O)c2cc(F)ccc21 [Example 116, 1-(2-ethyl-4-fluorophenyl)-6-fluoro-3-(2-methyl-6-oxo-1,6-dihydropyridin-3-yl)-2,3-dihydroquinazolin-4(1H)-one]	≤ 100
CCOc1ccc(N2CN(c3ccc(=O)[nH]c3C)C(=O)c3ccc(C(F)(F)F)cc32)cc1 [Example 156, 1-(4-ethoxyphenyl)-3-(2-methyl-6-oxo-1,6-dihydropyridin-3-yl)-7-(trifluoromethyl)-2,3-dihydroquinazolin-4(1H)-one]	126 to 631
Cc1[nH]c(=O)ccc1N1CN(c2ccc(F)cc2C(C)C)c2ccc(Cl)c(C)c2C1=O [Example 97, 6-chloro-1-(4-fluoro-2-isopropylphenyl)-5-methyl-3-(2-methyl-6-oxo-1,6-dihydropyridin-3-yl)-2,3-dihydroquinazolin-4(1H)-one]	≤ 100
Cc1cc(F)c(F)cc1N1CN(c2ccc(=O)[nH]c2C)C(=O)c2cc(C(F)(F)F)ccc21 [Example 113, 1-(4,5-difluoro-2-methylphenyl)-3-(2-methyl-6-oxo-1,6-dihydropyridin-3-yl)-6-(trifluoromethyl)-2,3-dihydroquinazolin-4(1H)-one]	126 to 631
Cc1cccc(F)c1N1CN(c2ccc(=O)[nH]c2C)C(=O)c2cc(C(F)(F)F)ccc21 [Example 135, 1-(2-fluoro-6-methylphenyl)-3-(2-methyl-6-oxo-1,6-dihydropyridin-3-yl)-6-(trifluoromethyl)-2,3-dihydroquinazolin-4(1H)-one]	794 to 7940
Cc1cc(F)ccc1N1CN(c2c[nH]c(=O)c(C)c2)C(=O)c2ccc(C(F)(F)F)cc21 [Example 218, 1-(4-fluoro-2-methylphenyl)-3-(5-methyl-6-oxo-1,6-dihydropyridin-3-yl)-7-(trifluoromethyl)-2,3-dihydroquinazolin-4(1H)-one]	126 to 631
Cc1[nH]c(=O)ccc1N1CN(c2ccc(F)cc2C(C)C)c2ncc(Cl)cc2C1=O [Example 213, 6-chloro-1-(4-fluoro-2-isopropylphenyl)-3-(2-methyl-6-oxo-1,6-dihydropyridin-3-yl)-2,3-dihydropyrido[2,3-d]pyrimidin-4(1H)-one]	126 to 631
Cc1[nH]c(=O)ccc1N1CN(c2ccc(F)c(F)c2C)c2ncc(C(F)(F)F)cc2C1=O [Example 177, 1-(3,4-difluoro-2-methylphenyl)-3-(2-methyl-6-oxo-1,6-dihydropyridin-3-yl)-6-(trifluoromethyl)-2,3-dihydropyrido[2,3-d]pyrimidin-4(1H)-one]	≤ 100
Cc1cc(F)ccc1N1CN(c2n[nH]c(=O)cc2C)C(=O)c2ccc(C(F)(F)F)cc21 [Example 20, 1-(4-fluoro-2-methylphenyl)-3-(4-methyl-6-oxo-1,6-dihydropyridazin-3-yl)-7-(trifluoromethyl)-2,3-dihydroquinazolin-4(1H)-one]	794 to 7940
Cc1[nH]c(=O)ccc1N1CN(c2cccc(C(F)(F)F)c2C)c2ncc(C(F)(F)F)cc2C1=O [Example 174, 1-(2-methyl-3-(trifluoromethyl)phenyl)-3-(2-methyl-6-oxo-1,6-dihydropyridin-3-yl)-6-(trifluoromethyl)-2,3-dihydropyrido[2,3-d]pyrimidin-4(1H)-one]	126 to 631
